The text below walks through data of patent US10869878B2, “Vaginal composition and use thereof” (SINGAPORE ZE&Z INTERNATIONAL PTE. LTD, priority 2014, dated 2020).

The subject of this assay is BV-associated bacteria. Briefly: Acid production by BV-associated bacteria, carbohydrates and antibacterial agents in combination (Experimental Example 3). Format: cell-based. The following applies: anaerobic, 37° C., 1.5% (w/v) carbohydrate, initial pH 5.4. The source says:
(1) Grouping in experiment: • (1) Sucrose-preservative group: containing 1.5% (w/v) sucrose, 0.5% (w/v) sodium propionate, 0.025% (w/v) sodium dehydroacetate, MRS basal medium without carbohydrate, 5% (w/v) calf serum, and 0.45% (w/v) agar, pH5.4; • (2) Isomaltose-preservative group: containing 1.5% (w/v) isomaltose, 0.5% (w/v) sodium propionate, 0.025% (w/v) sodium dehydroacetate, MRS basal medium without carbohydrate, 5% (w/v) calf serum, and 0.45% (w/v) agar, pH5.4; • (3) Isomaltulose-preservative group: containing 1.5% (w/v) isomaltulose, 0.5% (w/v) sodium propionate, 0.025% (w/v) sodium dehydroacetate, MRS basal medium without carbohydrate, 5% (w/v) calf serum, and 0.45% (w/v) agar, pH5.4; • (4) Sucrose control group: containing 1.5% (w/v) sucrose, MRS basal medium without carbohydrate, 5% (w/v) calf serum, and 0.45% (w/v) agar, pH5.4; • (5) Isomaltose control group: containing 1.5% (w/v) isomaltose, MRS basal medium without carbohydrate, 5% (w/v) calf serum, and 0.45% (w/v) agar, pH5.4; and • (6) Isomaltulose control group: containing 1.5% (w/v) isomaltulose, MRS basal medium without carbohydrate, 5% (w/v) calf serum, and 0.45% (w/v) agar, pH5.4.
The semi-solid agar of each group is formulated essentially following the method described in Composition Example 1, then sterilized, added with calf serum, and packed in test tubes in a specification of 5 g/tube, for late use.
(2) Secretion specimens from BV patients: vaginal secretions from 2 BV patients; and the criteria of inclusion are: • (1) conforming to the Amsel clinical criteria of BV diagnosis, wherein the pH value of the vaginal secretions was >4.6; • (2) after smearing, Gram staining, and microscopical examination of vaginal secretions, Nugent score ≥7; and • (3) no other vaginosis, and no antimicrobial agent is used within two weeks.
(3) After sampling, the vaginal secretion specimens from BV patients meeting the criteria of inclusion were immediately inoculated to 3 semi-solid agars containing a carbohydrate and a preservative and 3 control agars at the bedside, and anaerobically incubated at 37° C. for […]. The pH values of the agar matrices are detected with a precise pH test paper after 30 or 32 hrs and 40 or 48 hrs of incubation.

In the case of `OC[C@H]1O[C@H](OC[C@H]2OC(O)[C@H](O)[C@@H](O)[C@@H]2O)[C@H](O)[C@@H](O)[C@@H]1O` (stereo partly drawn) [Isomaltose, isomaltose], the “pH of the semi-solid agar” value (Specimen 1 (30 hrs)) is 3.8 and the “pH of the semi-solid agar” value (Specimen 2 (32 hrs)) is 3.8-4.1.

In the case of `OC[C@H]1O[C@H](OC[C@H]2OC(O)(CO)[C@@H](O)[C@@H]2O)[C@H](O)[C@@H](O)[C@@H]1O` (stereo partly drawn) [Isomaltulose, isomaltulose], the “pH of the semi-solid agar” value by setting is: (Specimen 1 (30 hrs)) 3.8; (Specimen 2 (32 hrs)) 3.8.

Regarding `OC[C@H]1O[C@@](CO)(O[C@H]2O[C@H](CO)[C@@H](O)[C@H](O)[C@H]2O)[C@@H](O)[C@@H]1O` [Sucrose, sucrose], the “pH of the semi-solid agar” value (Specimen 1 (30 hrs)) came to 3.8 and the “pH of the semi-solid agar” value (Specimen 2 (32 hrs)) came to 3.8.
